Experimental data as given in patent US20050261174A1, “Insecticidal activity of a cyclic peptide” (priority 2004, published 2005).
“And” between values parts separate entries of the source, which are not always exact repeats. Equal entries are not always repeated. “Also recorded” adds a separate entry of the source.

Columns and labels:
Format in all cases: in vivo
[1] = test system: beet armyworm (Spodoptera exigua); test: Beet armyworm topical test
Description: Insecticidal Test for Beet Armyworm (Spodoptera exigua) in Topical Assays.
To prepare topical solutions, 0.5 mg of test compound was dissolved into 0.5 ML of a 90:10 acetone:water solvent. A volume of 1 or 2 μl of the test solutions was topically applied to each of early fourth-instar beet armyworm larvae. Six larvae (6 replications) were used for each treatment. This application rate was equivalent to 1 or 2 μg per larva. Treated larvae were individually placed in wells of 6-well plastic plates and fed an artificial diet. Observations were made at one, two and three days after treatment.

[2] = test system: cabbage looper (Trichoplusia ni); test: Cabbage looper dietary test; conditions: for Symptom, 1 day / Symptom, 3 day: early third-instar larvae
Description: (§1) Insecticidal Test for Tobacco Budworm (Heliothis virescens), Beet Armyworm (Spodoptera exigua) and Cabbage Looper (Trichoplusia ni) in Dietary Assays.
(§2) Dietary assays were conducted in 128-well plastic trays. To prepare a 1000 ppm stock solution, 0.5 mg of test compound was dissolved into 0.5 mL of a 90:10 acetone:water solvent. The test solutions of 125 ppm and lower concentrations were made by sequentially diluting the stock solution with a 90:10 acetone: water solvent. A volume of 50 μl of the test solutions was pipetted upon the surface of 1 mL of lepidopteran diet (Southland Multi-Species Lepidopteran Diet) in each well of 128-well plastic trays. The highest application rate using the 125 ppm solution was equivalent to 3.1 μg/cm^2. For beet armyworm and cabbage looper, four wells (4 replications) were used for each treatment on each insect species. For tobacco budworm, eight wells (8 replications) were used for each treatment. A second-instar tobacco budworm, two second-instar beet armyworm or two early third-instar cabbage looper larvae were placed upon the treated diet in each well once the solvent had been air-dried. Trays containing the treated diet and larvae were covered with self-adhesive transparent sheets and held in a growth chamber at 25° C., 50-55% RH, and 16 h light: 8 h dark Observation were conducted 1 and 3 days after treatment and infestation.

[3] = test system: tobacco budworm (Heliothis virescens); test: Tobacco budworm dietary test; conditions: for Symptom, 1 day / Symptom, 3 day: second-instar larvae
Description: as §1, §2

[4] = test system: beet armyworm (Spodoptera exigua); test: Beet armyworm dietary test; conditions: for Symptom, 1 day / Symptom, 3 day: second-instar larvae
Description: as §1, §2

[5] = test system: cotton aphid (Aphis gossypii); test: Insecticidal test for cotton aphid, foliar spray on infested squash cotyledons; conditions: for % control: 3 days, population reduction versus untreated
Description: To prepare spray solutions, 0.5 mg of test compound was dissolved into 0.5 mL of a 90:10 acetone: water solvent. This 0.5 mL of chemical solution was added to 4.5 mL of water containing 0.025% Tween 20 surfactant to produce a 100 ppm spray solution. Lower concentrations were made by diluting the 100 ppm solution with water containing 0.025% Tween 20.
Squash cotyledons with a single cotyledon leaf were infested with cotton aphid (wingless adult and nymph) 16-20 hours prior to application of spray solution. The solution was sprayed with a hand-held Devilbiss sprayer on both sides of each infested squash cotyledon until runoff. Reference plants (solvent check) were sprayed with 0.025% Tween 20 containing 9% acetone. The plants were allowed to air dry and held for 3 days in a controlled room at 25° C. and 40% RH after which time the test was graded. Grading was by actual count using a dissecting microscope and comparison of test counts to the untreated check. Results are given in Table 2 as percent control based on population reduction versus the untreated.

[6] = test system: green peach aphid (Myzus persicae); test: Insecticidal test for green peach aphid, foliar spray on infested cabbage seedlings; conditions: for No. of live aphid, average / No. of live aphid, plant 1 / No. of live aphid, plant 2 / No. of live aphid, plant 3 / No. of live aphid, plant 4: graded after three days; for % control: three days, population reduction versus untreated
Description: Insecticidal Test for Green Peach Aphid (Myzus persicae).
Cabbage seedlings grown in 3-inch pots, with 2-3 small (3-5 cm) true leaves, were used as test substrate. The seedlings were infested with green peach aphids (wingless adult and nymph) 2-3 days prior to chemical application. Four seedlings were used for each treatment. To prepare spray solutions, 0.5 mg of test compound was dissolved into 0.5 mL of a 90:10 acetone:water solvent. This 0.5 mL of chemical solution was added to 4.5 mL of water containing 0.025% Tween 20 surfactant to produce a 100 ppm spray solution. Lower concentrations were made by diluting the 100 ppm solution with water containing 0.025% Tween 20.
A hand-held Devilbiss sprayer was used for spraying a solution to both sides of cabbage leaves until runoff. Reference plants (solvent check) were sprayed with 0.025% Tween 20 containing 9% acetone. Treated plants were held in a holding room for three days at approximately 25° C. and 40% RH prior to grading. Evaluation was conducted by counting the number of live aphids per plant under a microscope. Results are given in Table 3 as percent control based on population reduction versus the untreated.

[7] = 1.95 PPM (0.049 ug/cm2) on diet
[8] = 4 PPM spray, graded after 3 days
[9] = 20 PPM spray, graded after 3 days
[10] = 100 PPM spray, graded after 3 days

## C/C=C1\NC(=O)C2CSSCC/C=C/C(CC(=O)NC(C(C)C)C(=O)N2)OC(=O)C(C(C)C)NC1=O (centres unmarked) [compound of formula (I), FR901228]
[1]; 1 ug/larva topical, early fourth-instar larvae, 1 day
  Symptom, 1 day: 2 dying w/duiresis, and 2 unable to right, and 2 small, 1 OK
[1]; 2 ug/larva topical, early fourth-instar larvae, 3 day
  Symptom, 3 day: all dead; also recorded: w/duiresis
[2]; [7]
  % Dead, 1 day: 0%
  % Dead, 3 day: 0%
  Symptom, 1 day: none
  Symptom, 3 day: none
[2]; 7.8 PPM (0.195 ug/cm2) on diet
  % Dead, 1 day: 0%
  % Dead, 3 day: 0%
  Symptom, 1 day: none
  Symptom, 3 day: 60% size of UTC
[2]; 31.3 PPM (0.78 ug/cm2) on diet
  % Dead, 1 day: 0%
  % Dead, 3 day: 0%
  Symptom, 1 day: none
  Symptom, 3 day: 40% size of UTC
[2]; 125 PPM (3.1 ug/cm2) on diet
  % Dead, 1 day: 25%
  % Dead, 3 day: 50%
[3]; 1 PPM (0.025 ug/cm2) on diet
  % Dead, 1 day: 0%
  % Dead, 3 day: 0%
  Symptom, 1 day: none
[3]; 5 PPM (0.13 ug/cm2) on diet
  % Dead, 1 day: 0%
  % Dead, 3 day: 0%
  Symptom, 1 day: 80% size of UTC
  Symptom, 3 day: 60% size of UTC
[3]; 25 PPM (0.63 ug/cm2) on diet
  % Dead, 1 day: 0%
  % Dead, 3 day: 0%
  Symptom, 1 day: 60% size of UTC
  Symptom, 3 day: 40% size of UTC
[3]; 125 PPM (3.1 ug/cm2) on diet
  % Dead, 1 day: 0%
  % Dead, 3 day: 0%
[4]; [7]
  % Dead, 1 day: 0%
  % Dead, 3 day: 0%
  Symptom, 1 day: 90% size of UTC
  Symptom, 3 day: 30% size of UTC
[4]; 7.8 PPM (0.195 ug/cm2) on diet
  % Dead, 1 day: 0%
  % Dead, 3 day: 0%
  Symptom, 1 day: 70% size of UTC
  Symptom, 3 day: 15% size of UTC
[4]; 31.3 PPM (0.78 ug/cm2) on diet
  % Dead, 1 day: 0%
  % Dead, 3 day: 0%
  Symptom, 1 day: 50% size of UTC
  Symptom, 3 day: 10% size of UTC
[4]; 125 PPM (3.1 ug/cm2) on diet
  % Dead, 1 day: 0%
  % Dead, 3 day: 100%
  Symptom, 1 day: 30% size of UTC
  Symptom, 3 day: all dead
[5]; 4 PPM spray
  % control: 87%
[5]; [8]
  No. of live aphid, average: 27
  No. of live aphid, plant 1: 27
  No. of live aphid, plant 2: 40
  No. of live aphid, plant 3: 64
  No. of live aphid, plant 4: 83
[5]; 20 PPM spray
  % control: 95.2%
[5]; [9]
  No. of live aphid, average: 10
  No. of live aphid, plant 1: 16
  No. of live aphid, plant 2: 4
[5]; 100 PPM spray
  % control: 100%
[5]; [10]
  No. of live aphid, average: 0
  No. of live aphid, plant 1: 0
  No. of live aphid, plant 2: 0
[6]; 20 PPM spray
  No. of live aphid, average: 55
  No. of live aphid, plant 1: 47
  No. of live aphid, plant 2: 53
  No. of live aphid, plant 3: 87
  No. of live aphid, plant 4: 32
  % control: 35.8%
[6]; 100 PPM spray
  No. of live aphid, average: 24
  No. of live aphid, plant 1: 8
  No. of live aphid, plant 2: 31
  No. of live aphid, plant 3: 30
  No. of live aphid, plant 4: 26
  % control: 72.1%

## C/C=C1\NC(=O)[C@H]2CSSCC/C=C/[C@H](CC(=O)N[C@H](C(C)C)C(=O)N2)OC(=O)[C@H](C(C)C)NC1=O [compound of formula (I), FR901228]
[1]; 1 ug/larva topical, 1 day
  % Mortality, 1 day: 0%
[1]; 1 ug/larva topical
  % Mortality, 2 day: 17%
[1]; 1 ug/larva topical, 3 day
  % Mortality, 3 day: 67%
[1]; 2 ug/larva topical, 1 day
  % Mortality, 1 day: 0%
[1]; 2 ug/larva topical
  % Mortality, 2 day: 85%
[1]; 2 ug/larva topical, 3 day
  % Mortality, 3 day: 100%
